Measured values reported in patent US20050159352A1, “Use of monocarboxylate transporter protein for thyroid hormone transport” (priority 2002, published 2005).
Where two headings read alike, the source gives them in different places.

Experiments:
MCT8 [1] = biological target: T1, MCT8 (Rattus norvegicus, UniProt Q8K1P8, G227D/I169T/S199P/T171I); assay: Transport kinetics of MCT8-mediated iodothyronine uptake in oocytes (Michaelis-Menten); design: dose or concentration left out as unconfirmed; conditions: net transport
T1 sequence (Q8K1P8 whole entry I169T/T171I/S199P/G227D): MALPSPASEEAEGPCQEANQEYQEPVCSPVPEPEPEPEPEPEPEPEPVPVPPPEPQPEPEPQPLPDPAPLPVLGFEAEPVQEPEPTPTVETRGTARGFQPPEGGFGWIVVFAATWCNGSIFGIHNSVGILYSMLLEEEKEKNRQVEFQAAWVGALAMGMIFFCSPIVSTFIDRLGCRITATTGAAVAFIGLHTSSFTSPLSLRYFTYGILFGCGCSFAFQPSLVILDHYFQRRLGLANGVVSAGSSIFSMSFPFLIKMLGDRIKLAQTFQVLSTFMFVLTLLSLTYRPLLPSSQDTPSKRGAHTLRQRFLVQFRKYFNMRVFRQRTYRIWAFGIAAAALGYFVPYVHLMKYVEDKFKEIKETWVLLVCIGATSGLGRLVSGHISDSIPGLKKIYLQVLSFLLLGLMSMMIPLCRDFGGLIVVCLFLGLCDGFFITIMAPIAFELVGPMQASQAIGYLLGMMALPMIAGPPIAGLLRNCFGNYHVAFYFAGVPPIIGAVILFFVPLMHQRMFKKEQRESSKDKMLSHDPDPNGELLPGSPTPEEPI
Procedure: Apparent Km values were calculated by fitting the plot of uptake rate (v) versus ligand concentration (5) to the Michaelis Menten equation: v=Vmax/(1+Km/S), wherein Vmax is the maximum uptake rate, and Km the Michaelis constant. Calculations were performed using the Slide Write Plus program version 5.01 (Advanced Graphics Software).

MCT8 [2] = biological target: T1, MCT8; assay: Inhibition of uptake of labeled T4 and T3 in MCT8 cRNA-injected oocytes by putative competitors; format: cell-based; design: the stop codon of MCT8 was removed by performing PCR using the same sense primer as above; expressed in transfected cells; host or cells: Xenopus laevis oocytes injected with cRNA transcribed from pGEM-HeJuel
Procedure: (§1) Oocytes were isolated and allowed to recover overnight at 18 C in modified Barth's solution containing 20 IU/ml penicillin and 20 gg/ml streptomycin as described before (23). […] Uninjected or water injected oocytes were used as controls.
Transport measurements in oocytes—Oocytes were washed and preincubated at 18 C in standard uptake solution (100 mM NaCl, 2 mM KCl, 1 mM CaCl2, 1 mM MgCl2, 10 mM HEPES, and 10 mM Tris, pH 7.5). […] The possible Na^+ dependence of transport was tested by preincubation and incubation in Na^+-free uptake solution in which NaCl was replaced by choline chloride. The influence of the temperature on the uptake rate was tested by the incubation of oocytes with uptake solutions at different temperatures between 4 and 37 C. […] The incubation was stopped by aspiration of the medium, and oocytes were washed 4 times at 4 C with standard uptake solution containing 0.1% BSA.

rat MCT1 = biological target: T2, rat MCT1 (Rattus norvegicus, UniProt P53987); conditions: data not shown
T2 sequence (P53987 1-494): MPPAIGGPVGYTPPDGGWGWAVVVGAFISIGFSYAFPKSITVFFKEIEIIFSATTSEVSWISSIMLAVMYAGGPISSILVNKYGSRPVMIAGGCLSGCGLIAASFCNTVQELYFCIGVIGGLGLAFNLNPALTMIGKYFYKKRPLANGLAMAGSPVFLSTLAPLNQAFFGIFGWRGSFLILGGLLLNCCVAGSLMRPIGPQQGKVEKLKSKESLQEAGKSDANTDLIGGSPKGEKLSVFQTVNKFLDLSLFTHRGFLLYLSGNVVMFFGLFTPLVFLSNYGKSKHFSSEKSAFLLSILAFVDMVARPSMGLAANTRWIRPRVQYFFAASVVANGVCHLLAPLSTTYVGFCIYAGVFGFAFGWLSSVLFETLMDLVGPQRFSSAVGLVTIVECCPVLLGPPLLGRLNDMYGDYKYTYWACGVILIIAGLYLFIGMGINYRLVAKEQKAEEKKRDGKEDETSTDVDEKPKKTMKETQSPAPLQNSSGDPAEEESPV

MCT8 [3] = biological target: T1, MCT8; assay: Transport (uptake) of radioactive ligands by MCT8 expressed in X. laevis oocytes; format: cell-based; design: the stop codon of MCT8 was removed by performing PCR using the same sense primer as above; expressed in transfected cells; host or cells: Xenopus laevis oocytes injected with cRNA transcribed from pGEM-HeJuel
Procedure: Xenopus oocytes were isolated and injected with 4.6 ng rat MCTS cRNA. After 3 days, groups of 10 injected or uninjected oocytes were incubated for 60 mm at 25 C with 10 nM radioactive iodothyronines in 0.1 ml medium. Uptake of iodothyronines was determined as previously described (18).
as §1
Transport measurements in oocytes—Oocytes were washed and preincubated at 18 C in standard uptake solution (100 mM NaCl, 2 mM KCl, 1 mM CaCl2, 1 mM MgCl2, 10 mM HEPES, and 10 mM Tris, pH 7.5). Usually, transport was tested by incubation of groups of 5-10 oocytes for 2-60 mm at 25 C with 10 nM [1251]iodothyronines or 10 μM [3H]amino acids in 0.1 ml standard uptake solution. The possible Na^+ dependence of transport was tested by preincubation and incubation in Na^+-free uptake solution in which NaCl was replaced by choline chloride. The influence of the temperature on the uptake rate was tested by the incubation of oocytes with uptake solutions at different temperatures between 4 and 37 C. […] The incubation was stopped by aspiration of the medium, and oocytes were washed 4 times at 4 C with standard uptake solution containing 0.1% BSA.

MCT8 [4] = biological target: T1, MCT8; assay: as above; format: cell-based; design: the stop codon of MCT8 was removed by performing PCR using the same sense primer as above; expressed in transfected cells; host or cells: Xenopus laevis oocytes injected with cRNA transcribed from pGEM-HeJuel; conditions: 0.23 ng MCT8 cRNA injected; 10 nM ligand, 2 min, 25 C

N[C@@H](Cc1cc(I)c(Oc2cc(I)c(O)c(I)c2)c(I)c1)C(=O)O [T4, 3,3′,5,5′-tetraiodothyronine]
Saturability of transport by MCT8 (MCT8 [1]): saturable | inhibition at 10 µM (MCT8 [2]; labeled T4 10 nm, inhibitor 10 μM, MCT8 cRNA-injected oocytes, read-out: % inhibition ± SEM of uptake of T4): 69 ± 7% | inhibition at 10 µM (MCT8 [2]; read-out: % inhibition ± SEM of uptake of T3): 26 ± 7% | Inhibition of labeled T4 and T3 uptake by MCT8 (in words) (MCT8 [2]; unlabeled competitor, taurocholate and probenecid data not shown): potently inhibited | Transport in rat MCT1 cRNA-injected oocytes compared to control oocytes (in words) (rat MCT1): no additional uptake | Substrate specificity: transport by MCT8 (in words) (MCT8 [3]; 10 nM iodothyronines or amino acids, MCT8 cRNA-injected vs uninjected oocytes): rapid uptake | Uptake into oocytes at 4 C (in words) (MCT8 [3]; 10 nM, 2 min, 4 C, marked increases at 15, 25 and 37 C): significant uptake | Na+ dependence of transport by MCT8 (MCT8 [3]; NaCl replaced by choline chloride): modest but consistent inhibition | Increase in initial uptake compared with uninjected oocytes (MCT8 [3]; oocytes injected with 4.6 ng MCT8 cRNA, 10 nM ligand, 25 C): ~10 fold | Increase in transport at lowest amount of MCT8 cRNA (MCT8 [4]): 7.3 fold
